Where two headings read alike, the source gives them in different places.
Tests used:
[1] = tested on: yeast and mold counts of shower water; assay: Hadfield office shower head, Petrifilm yeast and mold count after biocide treatment; details: 30 min contact
Legionella pneumophilia = assay type: cell-based
Mycobacteria = details: against Mycobacteria; cited from earlier work
[2] = tested on: aerobic counts of shower water; assay: Hadfield office shower head, Petrifilm aerobic count after biocide treatment; details: for Mb. Analyses Aerobic: 30 min contact
[3] = tested on: microbiological activity in shower apparatus; assay: Treatment of shower apparatus, microbiological activity / TVC; details: solution of around 250-500 ppm
Text: The fall in TVCs or “kill” of the micro-activity following use of the first biocidal product alone or following a combination of use of the first biocidal product and second acidic sequestering product is similar but the time before significant re-inoculation is extended when the combination of the first and second compositions are used. In areas of high water hardness, the potential for re-inoculation is much higher than in areas of low water hardness and therefore the benefit of using an acidic sequestering product in combination with the biocidal product is much higher.
The biocidial composition of the present invention results in a fall in TVC from a starting level of approximately 10^5 cfu/ml to 20-500 cfu/ml.

Legionella = details: cited from earlier work
HIV = details: against HIV; cited from earlier work
Hepatatis = details: against Hepatatis; cited from earlier work
[4] = 0.5% solution, 555 ppm, 8 days (192 hours) since biocide first added, (1) Resting (8 days), 16 °C
[5] = 0.5% solution, 555 ppm, 8 days (192 hours) since biocide first added, (2) Shower running, 10 °C
[6] = 0.5% solution, 555 ppm, 8 days (192 hours) since biocide first added, (3) Shower running, 15 °C
[7] = 0.5% solution, 555 ppm, 8 days (192 hours) since biocide first added, (4) Shower running, 20 °C
[8] = 0.5% solution, 555 ppm, 8 days (192 hours) since biocide first added, (5) Shower running, 25 °C
[9] = 0.5% solution, 555 ppm, 8 days (192 hours) since biocide first added, (6) Shower running, 30 °C
[10] = 0.5% solution, 555 ppm, 8 days (192 hours) since biocide first added, (7) Shower running, 35 °C
[11] = 0.5% solution, 555 ppm, 8 days (192 hours) since biocide first added, (8) Shower running, 40 °C
[12] = 0.5% solution, 555 ppm, 8 days (192 hours) since biocide first added, (9) Shower running - full heat, 41 °C
[13] = 0.5% solution, 565 ppm, 24 hours after biocide addition, (1) Resting, 15 °C
[14] = 0.5% solution, 565 ppm, 24 hours after biocide addition, (2) Shower running, 10 °C
[15] = 0.5% solution, 565 ppm, 24 hours after biocide addition, (3) Shower running, 15 °C
[16] = 0.5% solution, 565 ppm, 24 hours after biocide addition, (4) Shower running, 20 °C
[17] = 0.5% solution, 565 ppm, 24 hours after biocide addition, (5) Shower running, 25 °C
[18] = 0.5% solution, 565 ppm, 24 hours after biocide addition, (6) Shower running, 30 °C
[19] = 0.5% solution, 565 ppm, 24 hours after biocide addition, (7) Shower running, 35 °C
[20] = 0.5% solution, 565 ppm, 24 hours after biocide addition, (8) Shower running, 40 °C
[21] = 0.5% solution, 565 ppm, 24 hours after biocide addition, (9) Shower running, 41 °C
[22] = 0.5% solution, 565 ppm, 48 hours after biocide addition, (1) Resting, 16 °C
[23] = 0.5% solution, 565 ppm, 48 hours after biocide addition, (2) Shower running, 10 °C
[24] = 0.5% solution, 565 ppm, 48 hours after biocide addition, (3) Shower running, 15 °C
[25] = 0.5% solution, 565 ppm, 48 hours after biocide addition, (4) Shower running, 20 °C
[26] = 0.5% solution, 565 ppm, 48 hours after biocide addition, (5) Shower running, 25 °C
[27] = 0.5% solution, 565 ppm, 48 hours after biocide addition, (6) Shower running, 30 °C
[28] = 0.5% solution, 565 ppm, 48 hours after biocide addition, (7) Shower running, 35 °C
[29] = 0.5% solution, 565 ppm, 48 hours after biocide addition, (8) Shower running, 40 °C
[30] = 0.5% solution, 565 ppm, 48 hours after biocide addition, (9) Shower running, 41 °C
[31] = 0.05% solution, 5 ppm, 24 hours after biocide addition, (1) Resting, 18 °C
[32] = 0.05% solution, 5 ppm, 24 hours after biocide addition, (2) Shower running, 10 °C
[33] = 0.05% solution, 5 ppm, 24 hours after biocide addition, (3) Shower running, 15 °C
[34] = 0.05% solution, 5 ppm, 24 hours after biocide addition, (4) Shower running, 20 °C
[35] = 0.05% solution, 5 ppm, 24 hours after biocide addition, (5) Shower running, 25 °C
[36] = 0.05% solution, 5 ppm, 24 hours after biocide addition, (6) Shower running, 30 °C
[37] = 0.05% solution, 5 ppm, 24 hours after biocide addition, (7) Shower running, 35 °C
[38] = 0.05% solution, 5 ppm, 24 hours after biocide addition, (8) Shower running, 40 °C
[39] = 0.05% solution, 5 ppm, 24 hours after biocide addition, (9) Shower running - full heat, 43 °C
[40] = 0.05% solution, 5 ppm, 48 hours after biocide addition, (1) Resting, 17 °C
[41] = 0.05% solution, 5 ppm, 48 hours after biocide addition, (2) Shower running, 10 °C
[42] = 0.05% solution, 5 ppm, 48 hours after biocide addition, (3) Shower running, 15 °C
[43] = 0.05% solution, 5 ppm, 48 hours after biocide addition, (4) Shower running, 20 °C
[44] = 0.05% solution, 5 ppm, 48 hours after biocide addition, (5) Shower running, 25 °C
[45] = 0.05% solution, 5 ppm, 48 hours after biocide addition, (6) Shower running, 30 °C
[46] = 0.05% solution, 5 ppm, 48 hours after biocide addition, (7) Shower running, 35 °C
[47] = 0.05% solution, 5 ppm, 48 hours after biocide addition, (8) Shower running, 40 °C
[48] = 0.05% solution, 5 ppm, 48 hours after biocide addition, (9) Shower running - full heat, 42 °C

SMILES: CCCCCCCCCCCCN(CCCN)CCCN [Lonzabac 12.100, N-(3-aminopropyl)-N-dodecylpropane-1,3-diamine]
- Mb. Analyses Yeast/Mold [1, 4]: No growth
- Mb. Analyses Yeast/Mold [1, 5]: No growth
- Mb. Analyses Yeast/Mold [1, 6]: No growth
- Mb. Analyses Yeast/Mold [1, 7]: No growth
- Mb. Analyses Yeast/Mold [1, 8]: No growth
- Mb. Analyses Yeast/Mold [1, 9]: 1 yeast cols/ml
- Mb. Analyses Yeast/Mold [1, 10]: No growth
- Mb. Analyses Yeast/Mold [1, 11]: No growth
- Mb. Analyses Yeast/Mold [1, 12]: 1 yeast cols/ml
- Mb. Analyses Yeast/Mold [1, 13]: No growth
- Mb. Analyses Yeast/Mold [1, 14]: No growth
- Mb. Analyses Yeast/Mold [1, 15]: No growth
- Mb. Analyses Yeast/Mold [1, 16]: No growth
- Mb. Analyses Yeast/Mold [1, 17]: No growth
- Mb. Analyses Yeast/Mold [1, 18]: No growth
- Mb. Analyses Yeast/Mold [1, 19]: No growth
- Mb. Analyses Yeast/Mold [1, 20]: No growth
- Mb. Analyses Yeast/Mold [1, 21]: No growth
- Mb. Analyses Yeast/Mold [1, 22]: No growth
- Mb. Analyses Yeast/Mold [1, 23]: No growth
- Mb. Analyses Yeast/Mold [1, 24]: No growth
- Mb. Analyses Yeast/Mold [1, 25]: No growth
- Mb. Analyses Yeast/Mold [1, 26]: No growth
- Mb. Analyses Yeast/Mold [1, 27]: No growth
- Mb. Analyses Yeast/Mold [1, 28]: No growth
- Mb. Analyses Yeast/Mold [1, 29]: No growth
- Mb. Analyses Yeast/Mold [1, 30]: No growth
- Biocidal effect (Legionella pneumophilia; 100 ppm biocidal active, contact time 5 minutes): Biocidal
- Biocidal effect (Legionella pneumophilia; 100 ppm biocidal active, contact time 10 minutes): Biocidal
- Biocidal effect (Legionella pneumophilia; 100 ppm biocidal active, contact time 15 minutes): Biocidal
- Biocidal effect (Legionella pneumophilia; 100 ppm biocidal active, contact time 30 minutes): Biocidal
- Biocidal effect (Legionella pneumophilia; 200 ppm biocidal active, contact time 5 minutes): Biocidal
- Biocidal effect (Legionella pneumophilia; 200 ppm biocidal active, contact time 10 minutes): Biocidal
- Biocidal effect (Legionella pneumophilia; 200 ppm biocidal active, contact time 15 minutes): Biocidal
- Biocidal effect (Legionella pneumophilia; 200 ppm biocidal active, contact time 30 minutes): Biocidal
- Biocidal effect (Legionella pneumophilia; 300 ppm biocidal active, contact time 5 minutes): Biocidal
- Biocidal effect (Legionella pneumophilia; 300 ppm biocidal active, contact time 10 minutes): Biocidal
- Biocidal effect (Legionella pneumophilia; 300 ppm biocidal active, contact time 15 minutes): Biocidal
- Biocidal effect (Legionella pneumophilia; 300 ppm biocidal active, contact time 30 minutes): Biocidal
- Biocidal effect (Legionella pneumophilia; 500 ppm biocidal active, contact time 5 minutes): Biocidal
- Biocidal effect (Legionella pneumophilia; 500 ppm biocidal active, contact time 10 minutes): Biocidal
- Biocidal effect (Legionella pneumophilia; 500 ppm biocidal active, contact time 15 minutes): Biocidal
- Biocidal effect (Legionella pneumophilia; 500 ppm biocidal active, contact time 30 minutes): Biocidal
- biocidal effect, summary of Table A (Legionella pneumophilia; all concentrations (100-500 ppm), contact time as short as 5 minutes): biocidal to Legionella at all concentrations
- concentration down to which effective (Mycobacteria): ≥ 0.05%
- Mb. Analyses Aerobic [2, 4]: 10^5 cols/ml
- Mb. Analyses Aerobic [2, 5]: 1 cols/ml
- Mb. Analyses Aerobic [2, 6]: 3 cols/ml
- Mb. Analyses Aerobic [2, 7]: No growth
- Mb. Analyses Aerobic [2, 8]: No growth
- Mb. Analyses Aerobic [2, 9]: 9 cols/ml
- Mb. Analyses Aerobic [2, 10]: 1 cols/ml
- Mb. Analyses Aerobic [2, 11]: No growth
- Mb. Analyses Aerobic [2, 12]: 2 cols/ml
- Mb. Analyses Aerobic [2, 13]: 60 cols/ml
- Mb. Analyses Aerobic [2, 14]: No growth
- Mb. Analyses Aerobic [2, 15]: No growth
- Mb. Analyses Aerobic [2, 16]: No growth
- Mb. Analyses Aerobic [2, 17]: No growth
- Mb. Analyses Aerobic [2, 18]: 1 cols/ml
- Mb. Analyses Aerobic [2, 19]: No growth
- Mb. Analyses Aerobic [2, 20]: 2 cols/ml
- Mb. Analyses Aerobic [2, 21]: No growth
- Mb. Analyses Aerobic [2, 22]: 520 cols/ml
- Mb. Analyses Aerobic [2, 23]: 8 cols/ml
- Mb. Analyses Aerobic [2, 24]: 2 cols/ml
- Mb. Analyses Aerobic [2, 25]: No growth
- Mb. Analyses Aerobic [2, 26]: No growth
- Mb. Analyses Aerobic [2, 27]: No growth
- Mb. Analyses Aerobic [2, 28]: No growth
- Mb. Analyses Aerobic [2, 29]: 1 cols/ml
- Mb. Analyses Aerobic [2, 30]: No growth
- microbiological activity 8 days after treatment (Table 2) ([2]; before inclusion of wetting agents and other functional components): re-established itself
- sterilisation of shower compared with 5 parts per million of BCDMH (L8 recommendations) [3]: more effective sterilisation was achieved for a longer period
- concentration down to which effective (Legionella): ≥ 0.05%
- concentration down to which effective (HIV): ≥ 0.05%
- concentration down to which effective (Hepatatis): ≥ 0.05%

SMILES: CC1(C)C(=O)N(Cl)C(=O)N1Br [Omnia-Stat SP, 1-Bromo-3-chloro-5,5-dimethylhydantoin, reference compound]
- Mb. Analyses Yeast/Mold [1, 31]: No growth
- Mb. Analyses Yeast/Mold [1, 32]: No growth
- Mb. Analyses Yeast/Mold [1, 33]: No growth
- Mb. Analyses Yeast/Mold [1, 34]: 4 yeast cols/ml
- Mb. Analyses Yeast/Mold [1, 35]: 7 yeast cols/ml
- Mb. Analyses Yeast/Mold [1, 36]: 3 yeast cols/ml
- Mb. Analyses Yeast/Mold [1, 37]: 5 yeast cols/ml
- Mb. Analyses Yeast/Mold [1, 38]: No growth
- Mb. Analyses Yeast/Mold [1, 39]: No growth
- Mb. Analyses Yeast/Mold [1, 40]: 9 yeast cols/ml
- Mb. Analyses Yeast/Mold [1, 41]: 8 yeast cols/ml
- Mb. Analyses Yeast/Mold [1, 42]: 6 yeast cols/ml
- Mb. Analyses Yeast/Mold [1, 43]: 19 yeast cols/ml
- Mb. Analyses Yeast/Mold [1, 44]: No growth
- Mb. Analyses Yeast/Mold [1, 45]: 6 yeast cols/ml
- Mb. Analyses Yeast/Mold [1, 46]: No growth
- Mb. Analyses Yeast/Mold [1, 47]: 10 yeast cols/ml
- Mb. Analyses Yeast/Mold [1, 48]: 5 yeast cols/ml
- Mb. Analyses Aerobic [2, 31]: 480 cols/ml
- Mb. Analyses Aerobic [2, 32]: No growth
- Mb. Analyses Aerobic [2, 33]: 1 cols/ml
- Mb. Analyses Aerobic [2, 34]: 5 cols/ml
- Mb. Analyses Aerobic [2, 35]: 10 cols/ml
- Mb. Analyses Aerobic [2, 36]: 5 cols/ml
- Mb. Analyses Aerobic [2, 37]: 6 cols/ml
- Mb. Analyses Aerobic [2, 38]: No growth
- Mb. Analyses Aerobic [2, 39]: No growth
- Mb. Analyses Aerobic [2, 40]: 2600 cols/ml
- Mb. Analyses Aerobic [2, 41]: 3 cols/ml
- Mb. Analyses Aerobic [2, 42]: 3 cols/ml
- Mb. Analyses Aerobic [2, 43]: 5 cols/ml
- Mb. Analyses Aerobic [2, 44]: 9 cols/ml
- Mb. Analyses Aerobic [2, 45]: 2 cols/ml
- Mb. Analyses Aerobic [2, 46]: 10 cols/ml
- Mb. Analyses Aerobic [2, 47]: 6 cols/ml
- Mb. Analyses Aerobic [2, 48]: No growth
- microbiological recovery after two days compared with the basic product (Table 3) ([2]; shower after 19 days resting, 5 ppm): considerably greater

— patent US8894927B2, “Shower sterilisation system and method of use thereof” (Omnia-Klenz Ltd., priority 2010, dated 2014)
